Test results reported in US11236079B2, “Morpholine derivates as inhibitors of Vps34” (Neuropore Therapies, Inc., priority 2018, dated 2022).

Columns and labels:
PI3KC3 (hVPS34) kinase = PI3KC3 (hVPS34) kinase (Homo sapiens (Human), UniProt Q8NEB9); assay: PI3KC3 (hVPS34) kinase assay, ADP-Glo luminescence detection; format: biochemical; details: PI:PS lipid substrate, 60 min at 30° C., read-out: VPS34 IC50
Experimental: The PI3KC3 (hVPS34) kinase reactions utilize ATP and produce ADP as a byproduct. The ADP production is quantified by ADP-Glo luminescence detection. The PI3KC3 (hVPS34) kinase assay was performed by Reaction Biology Corp. (Malvern, Pa.).
This was a 3-step reaction: First, the kinase reaction with lipid substrate was carried out in the presence of ATP. The reaction was then quenched, and the remaining ATP depleted with ADP-Glo™ reagent. Finally, the ADP was converted to ATP, which is measured using a luciferase/luciferin reaction. The luminescence was converted into μM ADP production based on ADP standard curves. The nonlinear regression to obtain the standard curve and IC50 values were performed using Graphpad Prism software.
The substrate (Phosphatidylinositol (PI): Phosphatidylserine (PS)) was added to freshly prepared reaction buffer (40 mM Tris-HCl (pH7.5), 3 μM Orthovanadate, 20 mM MgCl2, 2 mM DTT, 0.05% CHAPS, 1% DMSO). The PI3KC3 (hVPS34) kinase was delivered into the substrate solution with gentle mixing. Compounds were delivered in 100% DMSO into the kinase reaction mixture by Acoustic technology (Echo550; nanoliter range). The reaction was incubated for 20 min at room temperature. ATP was delivered into the reaction mixture to initiate the reaction. After incubating the mixture for 60 min at 30° C., the reaction was quenched with ADP-Glo reagent (Promega ADP Glo Kinase Assay kit #V9102) and incubated for 40 min at room temperature. Detection mixture (Promega ADP Glo Kinase Assay kit #V9102) was added and the reaction was incubated for 30 minutes. Luminescence was measured.

PI3Kα = PI3Kα (Homo sapiens (Human), UniProt P42336); assay: PI3Kα inhibition, ATP to ADP conversion by ADP-Glo kinase activity assay; format: biochemical; details: 25 μM PIP2:PS, 60 μM ATP, reaction time 30 minutes
Sequence of PI3Kα (P42336 whole entry): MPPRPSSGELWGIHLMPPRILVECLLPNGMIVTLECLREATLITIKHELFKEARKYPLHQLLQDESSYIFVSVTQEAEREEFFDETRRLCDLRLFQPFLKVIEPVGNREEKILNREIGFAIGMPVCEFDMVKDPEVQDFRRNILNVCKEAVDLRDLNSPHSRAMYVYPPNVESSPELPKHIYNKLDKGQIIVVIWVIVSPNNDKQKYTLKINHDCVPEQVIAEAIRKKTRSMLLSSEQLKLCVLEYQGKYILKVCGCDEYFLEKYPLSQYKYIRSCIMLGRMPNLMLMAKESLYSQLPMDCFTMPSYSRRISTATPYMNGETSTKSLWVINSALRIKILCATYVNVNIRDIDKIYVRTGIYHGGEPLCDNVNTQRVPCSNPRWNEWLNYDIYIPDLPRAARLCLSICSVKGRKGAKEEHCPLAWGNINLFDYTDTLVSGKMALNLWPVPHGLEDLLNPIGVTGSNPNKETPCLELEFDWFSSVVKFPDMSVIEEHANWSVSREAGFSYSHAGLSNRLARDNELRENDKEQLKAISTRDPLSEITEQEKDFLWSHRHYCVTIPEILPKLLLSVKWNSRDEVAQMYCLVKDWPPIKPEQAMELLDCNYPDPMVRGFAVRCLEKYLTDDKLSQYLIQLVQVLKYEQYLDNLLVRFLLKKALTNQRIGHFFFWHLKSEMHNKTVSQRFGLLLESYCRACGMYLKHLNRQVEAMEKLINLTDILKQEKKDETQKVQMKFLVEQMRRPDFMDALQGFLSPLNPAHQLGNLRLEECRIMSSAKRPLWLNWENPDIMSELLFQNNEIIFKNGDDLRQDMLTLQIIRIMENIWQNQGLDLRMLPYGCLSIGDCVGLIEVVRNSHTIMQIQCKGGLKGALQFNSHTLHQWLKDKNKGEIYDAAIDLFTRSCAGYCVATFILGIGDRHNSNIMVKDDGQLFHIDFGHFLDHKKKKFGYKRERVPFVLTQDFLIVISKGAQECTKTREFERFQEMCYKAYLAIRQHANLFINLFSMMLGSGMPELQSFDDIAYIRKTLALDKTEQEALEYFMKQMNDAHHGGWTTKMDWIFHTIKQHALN
Sequence of PI3Kα (P27986 whole entry partner): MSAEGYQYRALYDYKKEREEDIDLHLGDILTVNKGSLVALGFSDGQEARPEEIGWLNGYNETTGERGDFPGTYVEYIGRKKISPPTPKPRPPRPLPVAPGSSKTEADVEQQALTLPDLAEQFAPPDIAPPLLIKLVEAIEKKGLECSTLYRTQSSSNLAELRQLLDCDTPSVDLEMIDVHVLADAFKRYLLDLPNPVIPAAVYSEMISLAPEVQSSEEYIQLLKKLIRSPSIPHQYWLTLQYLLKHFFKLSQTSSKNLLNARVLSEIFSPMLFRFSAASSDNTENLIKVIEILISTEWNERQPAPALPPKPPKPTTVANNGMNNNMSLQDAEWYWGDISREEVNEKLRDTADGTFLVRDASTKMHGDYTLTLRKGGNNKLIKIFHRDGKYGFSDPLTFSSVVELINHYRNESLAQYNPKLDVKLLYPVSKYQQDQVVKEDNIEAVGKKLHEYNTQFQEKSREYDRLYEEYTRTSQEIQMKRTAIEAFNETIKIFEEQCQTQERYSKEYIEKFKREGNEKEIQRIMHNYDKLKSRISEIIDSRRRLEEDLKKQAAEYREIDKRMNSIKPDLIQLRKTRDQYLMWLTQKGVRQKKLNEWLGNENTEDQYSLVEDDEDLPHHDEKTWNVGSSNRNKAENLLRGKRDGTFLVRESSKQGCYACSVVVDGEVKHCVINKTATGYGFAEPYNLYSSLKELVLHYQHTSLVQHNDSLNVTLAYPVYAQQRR
Experimental: Inhibition of PI3Kα—Quantification of ATP to ADP conversion as a measure of PI3Kα activity. Active PI3Kα (Life Technologies), in the presence or absence of PI3Kα inhibitor, was reacted with PIP2:PS (Life Technologies), a substrate specifically optimized for use with Class I PI3 kinases, and ultrapure ATP (Promega). The conversion of ATP to ADP by PI3Kα was measured as luminescence signal via Promega ADP-Glo kinase activity assay. Assay was validated using published PI3Kα inhibitors LY294002, PI-103, BYL719, and GDC0198 as well as a DMSO vehicle control.
Compounds were prepared at 100× final concentration using a 12-point, 1:3 serial-dilution in DMSO, with DMSO control as the 12th point. Compound was then diluted in HEPES buffer (25 mM HEPES pH 7.5, 1 mM EGTA, 0.3% CHAPS) prior to addition to PI3Kα. Active PI3Kα diluted to 0.24 ng/μL (1.1 nM) in (50 mM HEPES pH 7.5, 6 mM MgCl2, 1 mM EGTA, 200 mM NaCl, 0.03% CHAPS, 8 mM DTT) was incubated with compound for 0 hr and 3 hr prior to the start of the reaction. 25 μM PIP2:PS and 60 μM ATP were diluted from stock solution (25 mM HEPES pH 7.5, 1 mM EGTA, 0.3% CHAPS) and added to initiate the PI3Kα reaction. Reaction time was 30 minutes. ATP to ADP conversion was measured in Luminescence Counts on DTX880 Plate Reader (Beckman Coulter). The IC50 of the compounds were reported using the GraphPad Prism software. Analytical method was non-linear regression, 4-parameter curve fit with bottom fit to validated PI3Kα inhibitor reference controls and no top fit (floating top).

Sequence of PI3KC3 (hVPS34) kinase (Q8NEB9 whole entry): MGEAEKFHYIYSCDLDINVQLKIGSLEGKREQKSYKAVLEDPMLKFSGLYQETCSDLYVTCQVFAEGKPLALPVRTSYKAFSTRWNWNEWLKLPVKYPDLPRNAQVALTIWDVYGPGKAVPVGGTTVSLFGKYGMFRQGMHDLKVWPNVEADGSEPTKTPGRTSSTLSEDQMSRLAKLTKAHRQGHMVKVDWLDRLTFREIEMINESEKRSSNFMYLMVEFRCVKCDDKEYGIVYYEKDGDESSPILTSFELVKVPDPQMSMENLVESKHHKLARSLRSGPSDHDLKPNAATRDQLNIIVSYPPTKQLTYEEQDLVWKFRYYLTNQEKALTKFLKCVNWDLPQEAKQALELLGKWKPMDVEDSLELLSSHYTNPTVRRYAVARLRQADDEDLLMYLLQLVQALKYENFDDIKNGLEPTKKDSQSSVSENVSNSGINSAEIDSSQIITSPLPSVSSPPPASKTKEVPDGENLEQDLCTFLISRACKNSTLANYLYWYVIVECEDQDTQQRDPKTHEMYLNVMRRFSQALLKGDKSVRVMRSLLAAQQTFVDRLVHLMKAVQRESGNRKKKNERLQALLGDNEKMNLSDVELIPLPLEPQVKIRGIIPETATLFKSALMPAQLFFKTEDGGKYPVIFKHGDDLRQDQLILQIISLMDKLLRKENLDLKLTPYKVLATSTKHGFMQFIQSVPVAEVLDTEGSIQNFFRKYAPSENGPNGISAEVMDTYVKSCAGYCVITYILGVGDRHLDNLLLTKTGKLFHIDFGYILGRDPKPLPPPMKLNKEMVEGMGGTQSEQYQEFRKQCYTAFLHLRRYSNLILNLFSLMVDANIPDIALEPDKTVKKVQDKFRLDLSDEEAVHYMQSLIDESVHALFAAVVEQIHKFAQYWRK

## Nc1ncc(-c2cc(N3CCOCC3)cc(S(=O)(=O)[C@@H]3CCOC3)c2)s1 [Example 1, (R)-5-(3-morpholino-5-((tetrahydrofuran-3-yl)sulfonyl)phenyl)thiazol-2-amine]
PI3KC3 (hVPS34) kinase
  IC50: 3800 nM
PI3Kα
  IC50: 750 nM

## Nc1nc(C(F)(F)F)c(-c2cc(N3CCOCC3)cc(S(=O)(=O)[C@@H]3CCOC3)c2)s1 [Example 2, (R)-5-(3-morpholino-5-((tetrahydrofuran-3-yl)sulfonyl)phenyl)-4-(trifluoromethyl)thiazol-2-amine]
PI3KC3 (hVPS34) kinase
  IC50: 2100 nM
PI3Kα
  IC50: 740 nM

## Nc1nsc(-c2cc(N3CCOCC3)cc(S(=O)(=O)c3ccccc3)c2)n1 [Example 4, 5-(3-morpholino-5-(phenylsulfonyl)phenyl)-1,2,4-thiadiazol-3-amine]
PI3KC3 (hVPS34) kinase
  IC50: 2200 nM
PI3Kα
  IC50: 11200 nM

## Nc1nnc(-c2cc(N3CCOCC3)cc(S(=O)(=O)c3ccccc3)c2)s1 [Example 3, 5-(3-morpholino-5-(phenylsulfonyl)phenyl)-1,3,4-thiadiazol-2-amine]
PI3KC3 (hVPS34) kinase
  IC50: 1600 nM
PI3Kα
  IC50: 2200 nM

## Nc1ncc(-c2cc(S(=O)(=O)c3ccccc3)cc(N3CCOCC3)n2)s1 [Example 5, 5-(6-morpholino-4-(phenylsulfonyl)pyridin-2-yl)thiazol-2-amine]
PI3KC3 (hVPS34) kinase
  IC50: 81 nM
PI3Kα
  IC50: 502 nM

## Nc1ncc(-c2cc(Oc3ccccc3)cc(N3CCOCC3)n2)s1 [Example 8, 5-(6-morpholino-4-phenoxypyridin-2-yl)thiazol-2-amine]
PI3KC3 (hVPS34) kinase
  IC50: 150 nM
PI3Kα
  IC50: 3420 nM

## Nc1nc(C(F)(F)F)c(-c2cc(S(=O)(=O)c3ccccc3)cc(N3CCOCC3)n2)s1 [Example 6, 5-(6-morpholino-4-(phenylsulfonyl)pyridin-2-yl)-4-(trifluoromethyl)thiazol-2-amine]
PI3KC3 (hVPS34) kinase
  IC50: 287 nM
PI3Kα
  IC50: 5240 nM

## Cc1nc(N)sc1-c1cc(S(=O)(=O)c2ccccc2)cc(N2CCOCC2)n1 [Example 7, 4-methyl-5-(6-morpholino-4-(phenylsulfonyl)pyridin-2-yl)thiazol-2-amine]
PI3KC3 (hVPS34) kinase
  IC50: 19 nM
PI3Kα
  IC50: 2300 nM
